# Values quoted from earlier work in patent US8759403B2, “Curcuminoids and its metabolites for the application in allergic ocular/nasal conditions” (Laila Pharmaceutical Pvt. Ltd., priority 2009, dated 2014).
# Tests used:
# guinea pigs = conditions: 20 mg/kg body weight
# murine model of allergy = conditions: mouse, in vivo
smiles,measurement,setting,value
COc1cc(/C=C/C(=O)CC(=O)/C=C/c2ccc(O)c(OC)c2)ccc1O [curcumin],airway hyper reactivity,guinea pigs; p<0.0043,significantly inhibits
same,OVA-induced airway constriction,guinea pigs; p<0.0399,significantly inhibits
same,allergic response in treated animals,murine model of allergy,marked inhibition of allergic response
same,histamine release from mast cells,mast cells,inhibitory effect
